# Measurements taken from patent publication US20250243210A1, “CRBN E3 LIGASE LIGAND COMPOUND, PROTEIN DEGRADER DEVELOPED BASED THEREON AND THEIR APPLICATIONS” (GLUETACS THERAPEUTICS (SHANGHAI) CO., LTD., priority 2021, published 2025).
# pIC50: −log10 of the molar value. Where two headings read alike, the source gives them in different places.
# Assays:
# Kasumi-1 = experiment: CCK-8 tumor cell proliferation, Kasumi-1; assay type: cell-based; settings: Homo sapiens, Kasumi-1, 72 h, read-out: IC50 for inhibiting the proliferation of tumor cells, Kasumi-1
# Description: (§1) Determination of half inhibitory concentration (IC50) of the compounds against tumor cells:
# (§2) The tumor cells used herein were cultured in a cell culture medium listed in table 6 at 37° C. in an incubator with 5% CO2.
# (§3) After the cells were treated with the compounds of the present disclosure for a period of time (the treatment times listed in Table 7), the cell viability detection reagent was added to the culture medium for cell viability assessment according to the instructions provided with the CCK-8 kit. […] The growth inhibition of the compounds of the present disclosure on cells was plotted by Prism Graphpad software, and the IC50 values of the compounds of the present disclosure were calculated therefrom.
# SU-DHL-6 = experiment: CCK-8 tumor cell proliferation, SU-DHL-6; assay type: cell-based; settings: Homo sapiens, SU-DHL-6, 72 h, read-out: IC50 for inhibiting the proliferation of tumor cells, SU-DHL-6
# Description: as §1, §2, §3
# [1] = molecular target: human Cereblon WT GST-tagged protein (Homo sapiens (Human), UniProt Q96SW2); experiment: CRBN binding, HTRF (CEREBLON BINDING kit)
# Chain of human Cereblon WT GST-tagged protein (Q96SW2 whole entry): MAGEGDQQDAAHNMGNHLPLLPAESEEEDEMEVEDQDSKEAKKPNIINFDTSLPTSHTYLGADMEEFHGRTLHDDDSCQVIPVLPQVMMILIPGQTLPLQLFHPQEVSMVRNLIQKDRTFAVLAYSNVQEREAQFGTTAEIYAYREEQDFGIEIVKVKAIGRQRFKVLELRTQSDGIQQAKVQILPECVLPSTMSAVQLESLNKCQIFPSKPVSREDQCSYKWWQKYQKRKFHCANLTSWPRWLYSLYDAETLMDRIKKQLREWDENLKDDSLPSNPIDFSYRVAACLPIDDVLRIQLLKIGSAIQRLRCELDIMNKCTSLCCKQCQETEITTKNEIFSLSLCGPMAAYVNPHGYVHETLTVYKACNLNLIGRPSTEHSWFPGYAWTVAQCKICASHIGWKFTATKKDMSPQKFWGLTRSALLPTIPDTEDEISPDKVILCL
# Description: Determination of CRBN-Binding Affinity of Compounds
# The CEREBLON BINDING kits (specification: 10,000 tests; product number: Catalog #64BDCRBNPEH; CISBIO company) was used to determine the CRBN binding ability of the compounds to be tested through a HTRF method (homogeneous time-resolved fluorescence). The specific methods are as follows: • 1. […] Then, 2.5 μL of (human Cereblon WT GST-tagged protein) solution was added to each well. Finally, 5 μL of the uniformly mixed thalidomide-Red reagent and GST Eu antibody working solution were added to each of the above wells. […] The blank control wells were sequentially added with 2.5 μL of diluent #9 (1×) solution, 2.5 μL of ligand binding buffer, and 5 μL of uniformly mixed thalidomide-Red reagent and GST Eu antibody working solution. • 4. […] The corresponding CRBN binding inhibition rate was calculated using the following method: […]
# PC-3 = experiment: CCK-8 tumor cell proliferation, PC-3; assay type: cell-based, Human; settings: PC-3, 96 h, read-out: IC50 for inhibiting the proliferation of tumor cells, PC-3
# Description: as §1, §2, §3
# MGC80-3 = experiment: CCK-8 tumor cell proliferation, MGC80-3; assay type: cell-based, Human; settings: read-out: IC50 for inhibiting the proliferation of tumor cells, MGC80-3
# Description: as §1
# (§4) The tumor cells used herein were cultured in a cell culture medium listed in table 6 at 37° C. in an incubator with 5% CO2. Prior to experimentation, all cells used were correctly identified by STR profiling, and tested negative for mycoplasma through routine screenings.
# (§5) IC50 values of the compounds of the present disclosure (including the compounds in Table 4 and compounds of examples 1-72) were measured using the Meilun Cell Counting Kit-S kit from Dalian Meilun Biotech Co., Ltd. Assay details are as follows: tumor cells were seeded in a 96-well plate at a density listed in Table 7. After 24 h, 100 μL of the inoculated cells were treated with 0.5 μL of the compounds of the present disclosure (including the compounds in Table 4 and compounds of examples 1-72) at 10 different successively decreasing concentrations (starting at the highest concentration of 10 μM; 5-fold serial dilutions). After the cells were treated with the compounds of the present disclosure for a period of time (the treatment times listed in Table 7), the cell viability detection reagent was added to the culture medium for cell viability assessment according to the instructions provided with the CCK-8 kit. […] The growth inhibition of the compounds of the present disclosure on cells was plotted by Prism Graphpad software, and the IC50 values of the compounds of the present disclosure were calculated therefrom.
# LNcap = experiment: CCK-8 tumor cell proliferation, LNcap; assay type: cell-based, Human; settings: 96 h, read-out: IC50 for inhibiting the proliferation of tumor cells, LNcap
# Description: as §1, §4, §5
# DU-145 = experiment: CCK-8 tumor cell proliferation, DU-145; assay type: cell-based, Human; settings: DU-145, 96 h, read-out: IC50 for inhibiting the proliferation of tumor cells, DU-145
# Description: as §1, §2, §3
# WSU-DLCL2 = experiment: CCK-8 tumor cell proliferation, WSU-DLCL2; assay type: cell-based, Human; settings: read-out: IC50 for inhibiting the proliferation of tumor cells, WSU-DLCL2
# Description: as §1, §2, §3
# Hep3B2.1-7 = experiment: CCK-8 tumor cell proliferation, Hep3B2.1-7; assay type: cell-based, Human; settings: Homo sapiens, Hep3B2.1-7, 96 h, read-out: IC50 for inhibiting the proliferation of tumor cells, Hep3B2.1-7
# Description: as §1, §4, §5
# [2] = Homo sapiens, MGC-803, MGC80-3, 96 h
# [3] = Homo sapiens, WSUDLCL2, WSU-DLCL2, 96 h
smiles,measurement,setting,value
"Cc1nc(Nc2ncc(C(=O)Nc3c(C)cccc3Cl)s2)cc(N2CCC(CN3CC4CCC(C3)N4c3cc4c(cc3F)C(=O)N(C3CCC(=O)NC3=O)C4=O)CC2)n1 (centres unmarked) [GT-03627, N-(2-chloro-6-methylphenyl)-2-((6-(4-((8-(2-(2,6-dioxopiperidin-3-yl)-6-fluoro-1,3-dioxoisoindolin-5-yl)-3,8-diazabicyclo[3.2.1]octan-3-yl)methyl)piperidin-1-yl)-2-methylpyrimidin-4-yl)amino)thiazole-5-carboxamide]",pIC50,Kasumi-1,6.30 to 7.00
same,pIC50,SU-DHL-6,6.30 to 7.00
"O=C1CCC(N2C(=O)c3ccc(N4CC5CCC4CN5)cc3C2=O)C(=O)N1 (centres unmarked) [GT-03076, 5-(2,5-diazabicyclo[2.2.2]octan-2-yl)-2-(2,6-dioxopiperidin-3-yl)isoindoline-1,3-dione]",pIC50,[1],6.19
"Cc1nc(Nc2ncc(C(=O)Nc3c(C)cccc3Cl)s2)cc(N2CCC(CN3CC4CC(C3)N4c3cc4c(cc3F)C(=O)N(C3CCC(=O)NC3=O)C4=O)CC2)n1 (centres unmarked) [GT-03628, N-(2-chloro-6-methylphenyl)-2-((6-(4-((6-(2-(2,6-dioxopiperidin-3-yl)-6-fluoro-1,3-dioxoisoindolin-5-yl)-3,6-diazabicyclo[3.1.1]heptan-3-yl)methyl)piperidin-1-yl)-2-methylpyrimidin-4-yl)amino)thiazole-5-carboxamide]",pIC50,Kasumi-1,6.30 to 7.00
"CC1(C)[C@H](NC(=O)c2ccc(N3CCC(CN4CC5CC(C4)N5c4ccc5c(c4)C(=O)N(C4CCC(=O)NC4=O)C5=O)CC3)nn2)C(C)(C)[C@H]1Oc1ccc(C#N)c(Cl)c1 (some centres unmarked) [GT-03400, N-((1r,3r)-3-(3-chloro-4-cyanophenoxy)-2,2,4,4-tetramethylcyclobutyl)-6-(4-((6-(2-(2,6-dioxopiperidin-3-yl)-1,3-dioxoisoindolin-5-yl)-3,6-diazabicyclo[3.1.1]heptan-3-yl)methyl)piperidin-1-yl)pyridazine-3-carboxamide]",pIC50,PC-3; Homo sapiens,6.30 to 7.00
same,pIC50,MGC80-3; [2],6.30 to 7.00
same,pIC50,LNcap; Homo sapiens,6.30 to 7.00
same,pIC50,DU-145; Homo sapiens,6.30 to 7.00
same,pIC50,WSU-DLCL2; [3],6.00 to 6.30
"[2H]C1([2H])NC([2H])([2H])C([2H])([2H])N(c2cc3c(cc2F)C(=O)N(C2CCC(=O)NC2=O)C3=O)C1([2H])[2H] (centres unmarked) [GT-03108, 2-(2,6-dioxopiperidin-3-yl)-5-fluoro-6-(piperazin-1-yl-2,2,3,3,5,5,6,6-d8)isoindoline-1,3-dione]",pIC50,[1],5.06
"O=C1CCC(N2C(=O)c3cc(F)c(N4C5CNCC4C5)cc3C2=O)C(=O)N1 (centres unmarked) [GT-03106, 5-(3,6-diazabicyclo[3.1.1]heptan-6-yl)-2-(2,6-dioxopiperidin-3-yl)-6-fluoroisoindoline-1,3-dione]",pIC50,[1],5.39
"CC1(C)[C@H](NC(=O)c2ccc(N3CCC(CN4CC5CC(C4)N5c4cc5c(cc4F)C(=O)N(C4CCC(=O)NC4=O)C5=O)CC3)nc2)C(C)(C)[C@H]1Oc1ccc(C#N)c(Cl)c1 (some centres unmarked) [GT-03403, N-((1r,3r)-3-(3-chloro-4-cyanophenoxy)-2,2,4,4-tetramethylcyclobutyl)-6-(4-((6-(2-(2,6-dioxopiperidin-3-yl)-6-fluoro-1,3-dioxoisoindolin-5-yl)-3,6-diazabicyclo[3.1.1]heptan-3-yl)methyl)piperidin-1-yl)nicotinamide]",pIC50,PC-3; Homo sapiens,6.30 to 7.00
same,pIC50,MGC80-3; [2],6.00 to 6.30
same,pIC50,LNcap; Homo sapiens,6.00 to 6.30
same,pIC50,DU-145; Homo sapiens,6.30 to 7.00
same,pIC50,WSU-DLCL2; [3],5.00 to 5.30
"O=C1CCC(N2C(=O)c3ccc(N4C5CNCC4C5)cc3C2=O)C(=O)N1 (centres unmarked) [GT-03100, 5-(3,6-diazabicyclo[3.1.1]heptan-6-yl)-2-(2,6-dioxopiperidin-3-yl)isoindoline-1,3-dione]",pIC50,[1],5.01
"Cc1nc(Nc2ncc(C(=O)Nc3c(C)cccc3Cl)s2)cc(N2CCC(CN3CC4CC(C3)N4c3ccc4c(c3)C(=O)N(C3CCC(=O)NC3=O)C4=O)CC2)n1 (centres unmarked) [GT-03630, N-(2-chloro-6-methylphenyl)-2-((6-(4-((6-(2-(2,6-dioxopiperidin-3-yl)-1,3-dioxoisoindolin-5-yl)-3,6-diazabicyclo[3.1.1]heptan-3-yl)methyl)piperidin-1-yl)-2-methylpyrimidin-4-yl)amino)thiazole-5-carboxamide]",pIC50,Kasumi-1,≥ 7.30
same,pIC50,SU-DHL-6,6.30 to 7.00
"O=C1CCC(N2C(=O)c3cc(F)c(N4C5CCC4CNC5)cc3C2=O)C(=O)N1 (centres unmarked) [GT-03211, 5-(3,8-diazabicyclo[3.2.1]octan-8-yl)-2-(2,6-dioxopiperidin-3-yl)-6-fluoroisoindoline-1,3-dione]",pIC50,[1],5.01
"CC1(C)[C@H](NC(=O)c2ccc(N3CCC(CN4C5CCC4CN(c4ccc6c(c4)C(=O)N(C4CCC(=O)NC4=O)C6=O)C5)CC3)nn2)C(C)(C)[C@H]1Oc1ccc(C#N)c(Cl)c1 (some centres unmarked) [GT-03399, N-((1r,3r)-3-(3-chloro-4-cyanophenoxy)-2,2,4,4-tetramethylcyclobutyl)-6-(4-((3-(2-(2,6-dioxopiperidin-3-yl)-1,3-dioxoisoindolin-5-yl)-3,8-diazabicyclo[3.2.1]octan-8-yl)methyl)piperidin-1-yl)pyridazine-3-carboxamide]",pIC50,Hep3B2.1-7,6.30 to 7.00
same,pIC50,PC-3; Homo sapiens,6.30 to 7.00
same,pIC50,LNcap; Homo sapiens,6.30 to 7.00
same,pIC50,DU-145; Homo sapiens,6.30 to 7.00
same,pIC50,WSU-DLCL2; [3],6.00 to 6.30
"N#Cc1ccc(OC2CCC(NC(=O)c3ccc(N4CCC(CN5CC6CC(C5)N6c5ccc6c(c5)C(=O)N(C5CCC(=O)NC5=O)C6=O)CC4)nn3)CC2)cc1Cl (centres unmarked) [GT-03339, N-((1r,4r)-4-(3-chloro-4-cyanophenoxy)cyclohexyl)-6-(4-((6-(2-(2,6-dioxopiperidin-3-yl)-1,3-dioxoisoindolin-5-yl)-3,6-diazabicyclo[3.1.1]heptan-3-yl)methyl)piperidin-1-yl)pyridazine-3-carboxamide]",pIC50,PC-3,6.30 to 7.00
same,pIC50,"MGC80-3; MGC80-3, 96 h",7.00 to 7.30
same,pIC50,LNcap,6.30 to 7.00
same,pIC50,DU-145,6.30 to 7.00
same,pIC50,"WSU-DLCL2; WSU-DLCL2, 96 h",6.30 to 7.00
"O=C1CCC(N2C(=O)c3ccc(N4C5CCC4CNC5)cc3C2=O)C(=O)N1 (centres unmarked) [GT-03210, 5-(3,8-diazabicyclo[3.2.1]octan-8-yl)-2-(2,6-dioxopiperidin-3-yl)isoindoline-1,3-dione]",pIC50,[1],5.57
"O=C1CCC(N2C(=O)c3ccc(N4CC5CCC(C4)N5)cc3C2=O)C(=O)N1 (centres unmarked) [GT-03077, 5-(3,8-diazabicyclo[3.2.1]octan-3-yl)-2-(2,6-dioxopiperidin-3-yl)isoindoline-1,3-dione]",pIC50,[1],5.28
"CC1(C)[C@H](NC(=O)c2ccc(N3CCC(CN4C5CC4CN(c4ccc6c(c4)C(=O)N(C4CCC(=O)NC4=O)C6=O)C5)CC3)nn2)C(C)(C)[C@H]1Oc1ccc(C#N)c(Cl)c1 (some centres unmarked) [GT-03401, N-((1r,3r)-3-(3-chloro-4-cyanophenoxy)-2,2,4,4-tetramethylcyclobutyl)-6-(4-((3-(2-(2,6-dioxopiperidin-3-yl)-1,3-dioxoisoindolin-5-yl)-3,6-diazabicyclo[3.1.1]heptan-6-yl)methyl)piperidin-1-yl)pyridazine-3-carboxamide]",pIC50,PC-3; Homo sapiens,6.30 to 7.00
same,pIC50,MGC80-3; [2],6.30 to 7.00
same,pIC50,LNcap; Homo sapiens,6.00 to 6.30
same,pIC50,DU-145; Homo sapiens,6.00 to 6.30
same,pIC50,WSU-DLCL2; [3],5.30 to 6.00
"O=C1CCC(N2C(=O)c3cc(F)c(N4CC5CC(C4)N5)cc3C2=O)C(=O)N1 (centres unmarked) [GT-03109, 5-(3,6-diazabicyclo[3.1.1]heptan-3-yl)-2-(2,6-dioxopiperidin-3-yl)-6-fluoroisoindoline-1,3-dione]",pIC50,[1],5.45
